From ChEMBL document CHEMBL4145510, “Discovery of a Keap1-dependent peptide PROTAC to knockdown Tau by ubiquitination-proteasome degradation pathway” (Eur J Med Chem, 2018)
Calls of active or inactive are those of the source. The calls are words filed in the database; no cut-off is given here.

Key:
[1] = target: T1, Kelch-like ECH-associated protein 1/Microtubule-associated protein tau/Cullin-3 (Homo sapiens) (UniProt P10636+Q14145+Q13618); test: Induction of Keap1/Cul3- mediated EGFP tagged Tau (unknown origin) degradation in human SH-SY5Y cells at 20 uM after 10 hrs by flow cytometry analysis; type: cell-based
[2] = target: Kelch-like ECH-associated protein 1 (Homo sapiens, UniProt Q14145); test: Binding affinity to human Keap1 (322 to 609 residues) by ITC method
[3] = target: Microtubule-associated protein tau (Homo sapiens, UniProt P10636); test: Binding affinity to human Tau (1 to 441 residues) by ITC method
[4] = Drug uptake in human SH-SY5Y cells using N-terminal TAMRA labeled compound at 10 uM after 12 hrs by Flow cytometry analysis; type: ADME, cell-based
[5] = Drug uptake in human SH-SY5Y cells using N-terminal TAMRA labeled compound at 10 uM after 8 hrs by DAPI staining-based laser scanning confocal microscopic analysis; type: ADME, cell-based
[6] = target: Kelch-like ECH-associated protein 1/Microtubule-associated protein tau (Homo sapiens) (UniProt P10636+Q14145); test: Binding affinity to Keap1/Tau in human SH-SY5Y cells at 10 to 20 uM by Western blot analysis; type: cell-based
[7] = Induction of Keap1/Cul3- mediated EGFP tagged Tau (unknown origin) degredation in mouse Neuro2a cells by Western blot analysis; type: cell-based
[8] = Induction of Keap1/Cul3- mediated EGFP tagged Tau (unknown origin) degradation in rat PC12 cells by Western blot analysis; type: cell-based
[9] = target: T1, Kelch-like ECH-associated protein 1/Microtubule-associated protein tau/Cullin-3 (Homo sapiens); test: Induction of Keap1/Cul3- mediated EGFP tagged Tau (unknown origin) degradation in human SH-SY5Y cells at 10 uM incubated for 10 hrs in absence of proteasome inhibitor MG132 by Western blot analysis; type: cell-based
[10] = target: T1, Kelch-like ECH-associated protein 1/Microtubule-associated protein tau/Cullin-3 (Homo sapiens); test: Induction of Keap1/Cul3- mediated EGFP tagged Tau (unknown origin) degradation in human SH-SY5Y cells at 10 uM incubated for 10 hrs in presence of proteasome inhibitor MG132 by Western blot analysis; type: cell-based
[11] = target: Cullin-3/Microtubule-associated protein tau (Homo sapiens) (UniProt P10636+Q13618); test: Induction of Cul3- mediated EGFP tagged Tau (unknown origin) degradation in human SH-SY5Y cells harboring Keap1 siRNA at 10 uM by Western blot analysis; type: cell-based
Cullin-3/Microtubule-associated protein tau (Homo sapiens), sequence (P10636 whole entry, looked up): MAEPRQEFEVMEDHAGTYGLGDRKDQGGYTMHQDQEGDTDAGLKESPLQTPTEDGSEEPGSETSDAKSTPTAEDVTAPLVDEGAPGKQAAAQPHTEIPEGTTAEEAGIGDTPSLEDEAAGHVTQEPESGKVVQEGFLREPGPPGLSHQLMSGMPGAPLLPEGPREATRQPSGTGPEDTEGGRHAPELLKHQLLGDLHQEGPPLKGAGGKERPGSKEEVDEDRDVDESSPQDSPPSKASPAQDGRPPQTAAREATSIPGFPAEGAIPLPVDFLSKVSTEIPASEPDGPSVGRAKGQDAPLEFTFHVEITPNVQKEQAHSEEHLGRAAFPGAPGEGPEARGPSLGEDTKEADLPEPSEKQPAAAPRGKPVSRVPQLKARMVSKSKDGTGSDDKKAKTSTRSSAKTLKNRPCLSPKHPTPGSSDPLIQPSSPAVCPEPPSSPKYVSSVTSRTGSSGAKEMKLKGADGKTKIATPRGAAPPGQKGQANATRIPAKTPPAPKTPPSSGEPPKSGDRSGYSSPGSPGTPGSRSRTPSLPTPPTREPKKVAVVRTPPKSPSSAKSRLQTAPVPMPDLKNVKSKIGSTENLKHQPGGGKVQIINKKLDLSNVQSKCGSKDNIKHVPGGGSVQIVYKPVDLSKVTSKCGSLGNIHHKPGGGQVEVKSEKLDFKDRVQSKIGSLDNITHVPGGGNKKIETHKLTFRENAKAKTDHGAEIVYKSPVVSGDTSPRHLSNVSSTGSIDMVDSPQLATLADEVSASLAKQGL
Cullin-3/Microtubule-associated protein tau (Homo sapiens), sequence (Q13618 whole entry, looked up): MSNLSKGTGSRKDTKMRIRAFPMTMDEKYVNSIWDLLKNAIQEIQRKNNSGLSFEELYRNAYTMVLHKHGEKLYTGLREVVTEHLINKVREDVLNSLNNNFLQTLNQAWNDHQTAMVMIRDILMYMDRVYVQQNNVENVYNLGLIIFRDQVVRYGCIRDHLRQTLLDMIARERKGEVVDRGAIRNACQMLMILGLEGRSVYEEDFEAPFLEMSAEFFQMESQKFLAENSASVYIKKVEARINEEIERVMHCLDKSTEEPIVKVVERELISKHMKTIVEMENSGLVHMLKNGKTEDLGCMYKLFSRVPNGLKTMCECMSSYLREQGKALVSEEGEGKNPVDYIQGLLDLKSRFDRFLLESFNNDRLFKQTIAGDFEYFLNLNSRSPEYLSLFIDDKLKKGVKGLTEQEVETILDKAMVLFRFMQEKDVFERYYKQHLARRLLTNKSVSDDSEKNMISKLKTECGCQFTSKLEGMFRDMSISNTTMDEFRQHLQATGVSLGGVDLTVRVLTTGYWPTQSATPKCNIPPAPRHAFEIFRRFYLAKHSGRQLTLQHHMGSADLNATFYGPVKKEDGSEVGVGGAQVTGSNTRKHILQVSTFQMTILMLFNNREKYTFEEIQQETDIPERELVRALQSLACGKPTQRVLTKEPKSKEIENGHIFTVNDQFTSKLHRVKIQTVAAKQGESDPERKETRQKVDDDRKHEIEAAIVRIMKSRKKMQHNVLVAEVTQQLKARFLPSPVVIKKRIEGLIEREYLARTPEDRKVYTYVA

T1 sequence (P10636 whole entry, looked up, the tested form may be a part): as the sequence (P10636 whole entry, looked up) above
T1 sequence (Q13618 whole entry, looked up, the tested form may be a part): as the sequence (Q13618 whole entry, looked up) above
T1 sequence (Q14145 whole entry, looked up, the tested form may be a part): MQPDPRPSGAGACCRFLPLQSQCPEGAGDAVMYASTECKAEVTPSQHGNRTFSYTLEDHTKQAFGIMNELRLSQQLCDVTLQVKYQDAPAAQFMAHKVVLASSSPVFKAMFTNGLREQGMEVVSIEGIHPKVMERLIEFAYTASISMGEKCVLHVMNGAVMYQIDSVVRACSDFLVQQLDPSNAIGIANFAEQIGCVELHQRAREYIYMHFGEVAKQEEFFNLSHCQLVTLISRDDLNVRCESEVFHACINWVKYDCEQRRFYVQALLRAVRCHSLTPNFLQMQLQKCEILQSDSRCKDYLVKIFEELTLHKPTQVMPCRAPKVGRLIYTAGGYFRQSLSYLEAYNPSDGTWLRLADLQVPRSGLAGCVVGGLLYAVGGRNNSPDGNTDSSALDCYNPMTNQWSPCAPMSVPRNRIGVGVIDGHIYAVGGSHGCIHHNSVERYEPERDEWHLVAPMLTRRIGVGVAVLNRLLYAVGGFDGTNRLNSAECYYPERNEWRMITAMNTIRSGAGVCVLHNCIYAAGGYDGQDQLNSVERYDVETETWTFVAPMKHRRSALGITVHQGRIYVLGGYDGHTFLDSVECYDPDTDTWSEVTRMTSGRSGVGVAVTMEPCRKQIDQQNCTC
Kelch-like ECH-associated protein 1, sequence (Q14145 whole entry, the tested form may be a part): as the sequence (Q14145 whole entry, looked up, the tested form may be a part) above
Microtubule-associated protein tau, sequence (P10636 whole entry, the tested form may be a part): as the sequence (P10636 whole entry, looked up) above
Kelch-like ECH-associated protein 1/Microtubule-associated protein tau (Homo sapiens), sequence (P10636 whole entry, looked up): as above
Kelch-like ECH-associated protein 1/Microtubule-associated protein tau (Homo sapiens), sequence (Q14145 whole entry, looked up): as the sequence (Q14145 whole entry, looked up, the tested form may be a part) above

SMILES | Activity [1] | Activity [9] | Activity [10] | Activity [11] | further results
CC(=O)N[C@@H](Cc1ccc(O)cc1)C(=O)N[C@@H](CCC(N)=O)C(=O)N[C@@H](CCC(N)=O)C(=O)N[C@@H](Cc1ccc(O)cc1)C(=O)N[C@@H](CCC(N)=O)C(=O)N[C@@H](CC(=O)O)C(=O)N[C@@H](C)C(=O)N[C@H](C(=O)N[C@@H](C)C(=O)N[C@@H](CC(=O)O)C(=O)N[C@@H](CCC(=O)O)C(=O)N[C@@H](CCC(N)=O)C(=O)NCC(=O)NCC(=O)N[C@@H](CO)C(=O)NCC(=O)N[C@@H](CO)C(=O)N[C@@H](CC(C)C)C(=O)N[C@@H](CC(=O)O)C(=O)N1CCC[C@H]1C(=O)N[C@@H](CCC(=O)O)C(=O)N[C@H](C(=O)NCC(=O)N[C@@H](CCC(=O)O)C(=O)N[C@@H](Cc1ccccc1)C(=O)N[C@@H](CC(C)C)C(=O)N[C@H](CCCNC(=N)N)C(=O)N[C@H](CCCNC(=N)N)C(=O)N[C@H](CCCNC(=N)N)C(=O)N[C@H](CCCNC(=N)N)C(=O)N[C@H](CCCNC(=N)N)C(=O)N[C@H](CCCNC(=N)N)C(=O)N[C@H](CCCNC(=N)N)C(=O)N[C@H](CCCNC(=N)N)C(=O)O)[C@@H](C)O)[C@@H](C)O | Active | – | – | – | –
CC(=O)N[C@@H](Cc1ccc(O)cc1)C(=O)N[C@@H](CCC(N)=O)C(=O)N[C@@H](CCC(N)=O)C(=O)N[C@@H](Cc1ccc(O)cc1)C(=O)N[C@@H](CCC(N)=O)C(=O)N[C@@H](CC(=O)O)C(=O)N[C@@H](C)C(=O)N[C@H](C(=O)N[C@@H](C)C(=O)N[C@@H](CC(=O)O)C(=O)N[C@@H](CCC(=O)O)C(=O)N[C@@H](CCC(N)=O)C(=O)NCC(=O)NCC(=O)NCC(=O)N[C@@H](CO)C(=O)NCC(=O)NCC(=O)N[C@@H](CC(C)C)C(=O)N[C@@H](CC(=O)O)C(=O)N1CCC[C@H]1C(=O)N[C@@H](CCC(=O)O)C(=O)N[C@H](C(=O)NCC(=O)N[C@@H](CCC(=O)O)C(=O)N[C@@H](Cc1ccc(O)cc1)C(=O)N[C@@H](CC(C)C)C(=O)N[C@H](CCCNC(=N)N)C(=O)N[C@H](CCCNC(=N)N)C(=O)N[C@H](CCCNC(=N)N)C(=O)N[C@H](CCCNC(=N)N)C(=O)N[C@H](CCCNC(=N)N)C(=O)N[C@H](CCCNC(=N)N)C(=O)N[C@H](CCCNC(=N)N)C(=O)N[C@H](CCCNC(=N)N)C(=O)O)[C@@H](C)O)[C@@H](C)O | inactive | – | – | – | –
CC(=O)N[C@@H](CCCCN)C(=O)N[C@@H](CC(=O)O)C(=O)N[C@@H](Cc1ccc(O)cc1)C(=O)N[C@@H](CCC(=O)O)C(=O)N[C@@H](CCC(=O)O)C(=O)N[C@H](C(=O)NCC(=O)N[C@H](C(=O)N[C@@H](CC(=O)O)C(=O)N[C@@H](CO)C(=O)N[C@H](C(=O)N[C@@H](CCC(=O)O)C(=O)NCC(=O)N[C@@H](CO)C(=O)NCC(=O)N[C@@H](CO)C(=O)N[C@@H](CC(C)C)C(=O)N[C@@H](CC(=O)O)C(=O)N1CCC[C@H]1C(=O)N[C@@H](CCC(=O)O)C(=O)N[C@H](C(=O)NCC(=O)N[C@@H](CCC(=O)O)C(=O)N[C@@H](Cc1ccc(O)cc1)C(=O)N[C@@H](CC(C)C)C(=O)N[C@H](CCCNC(=N)N)C(=O)N[C@H](CCCNC(=N)N)C(=O)N[C@H](CCCNC(=N)N)C(=O)N[C@H](CCCNC(=N)N)C(=O)N[C@H](CCCNC(=N)N)C(=O)N[C@H](CCCNC(=N)N)C(=O)N[C@H](CCCNC(=N)N)C(=O)N[C@H](CCCNC(=N)N)C(=O)O)[C@@H](C)O)C(C)C)C(C)C)C(C)C | Active | – | – | – | –
CC(=O)N[C@@H](Cc1ccc(O)cc1)C(=O)N[C@@H](CCC(N)=O)C(=O)N[C@@H](CCC(N)=O)C(=O)N[C@@H](Cc1ccc(O)cc1)C(=O)N[C@@H](CCC(N)=O)C(=O)N[C@@H](CC(=O)O)C(=O)N[C@@H](C)C(=O)N[C@H](C(=O)N[C@@H](C)C(=O)N[C@@H](CC(=O)O)C(=O)N[C@@H](CCC(=O)O)C(=O)N[C@@H](CCC(N)=O)C(=O)NCC(=O)NCC(=O)N[C@@H](CO)C(=O)NCC(=O)N[C@@H](CO)C(=O)N[C@@H](CC(C)C)C(=O)N[C@@H](CC(=O)O)C(=O)N1CCC[C@H]1C(=O)N[C@@H](CCC(=O)O)C(=O)N[C@H](C(=O)NCC(=O)N[C@@H](CCC(=O)O)C(=O)N[C@@H](Cc1ccc(O)cc1)C(=O)N[C@@H](CC(C)C)C(=O)N[C@H](CCCNC(=N)N)C(=O)N[C@H](CCCNC(=N)N)C(=O)N[C@H](CCCNC(=N)N)C(=O)N[C@H](CCCNC(=N)N)C(=O)N[C@H](CCCNC(=N)N)C(=O)N[C@H](CCCNC(=N)N)C(=O)N[C@H](CCCNC(=N)N)C(=O)N[C@H](CCCNC(=N)N)C(=O)O)[C@@H](C)O)[C@@H](C)O | Active | Active | inactive | inactive | Kd [2]: 22.8 nM; Kd [3]: 763 nM; Drug uptake [4]: Active; Drug uptake [5]: Active; Activity [6]: Active; Activity [7]: Dose-dependent effect; Activity [8]: Dose-dependent effect
CC(=O)N[C@@H](Cc1ccc(O)cc1)C(=O)N[C@@H](CCC(N)=O)C(=O)N[C@@H](CCC(N)=O)C(=O)N[C@@H](Cc1ccc(O)cc1)C(=O)N[C@@H](CCC(N)=O)C(=O)N[C@@H](CC(=O)O)C(=O)N[C@@H](C)C(=O)N[C@H](C(=O)N[C@@H](C)C(=O)N[C@@H](CC(=O)O)C(=O)N[C@@H](CCC(=O)O)C(=O)N[C@@H](CCC(N)=O)C(=O)NCC(=O)NCC(=O)N[C@@H](CO)C(=O)NCC(=O)N[C@@H](CO)C(=O)N[C@@H](CC(C)C)C(=O)N[C@@H](CC(=O)O)C(=O)N1CCC[C@H]1C(=O)N[C@@H](C)C(=O)N[C@H](C(=O)NCC(=O)N[C@@H](CCC(=O)O)C(=O)N[C@@H](Cc1ccc(O)cc1)C(=O)N[C@@H](CC(C)C)C(=O)N[C@H](CCCNC(=N)N)C(=O)N[C@H](CCCNC(=N)N)C(=O)N[C@H](CCCNC(=N)N)C(=O)N[C@H](CCCNC(=N)N)C(=O)N[C@H](CCCNC(=N)N)C(=O)N[C@H](CCCNC(=N)N)C(=O)N[C@H](CCCNC(=N)N)C(=O)N[C@H](CCCNC(=N)N)C(=O)O)[C@@H](C)O)[C@@H](C)O | inactive | inactive | inactive | inactive | –
